The subject of assay [1] is intestinal bacteria. Description: Prebiotic Index (gut lumen) and Prebiotic Attachment Index (gut wall mucus) in TWINSHIME
Format: cell-based, human. Particulars: from day 23, TWINSHIME
The procedure: FIG. 4 Prebiotic Index (PI) and Prebiotic Attachment Index (PAI) before, during and after treatment with respectively inulin and AX. The X-axis indicates experiment days during the TWINSHIME run. Inulin or AX were administered to the TWINSHIME from day 2 until day 23.
In addition to the above-mentioned measurements, experiments were performed to quantify the attachment of intestinal bacteria to the mucus layer at the gut wall. As attachment to the gut wall is the first stage of interaction between bacteria and the human host (e.g. immunomodulation, pathogenesis), characterization of the microbial ecology at the site of the gut wall and assessment of changes in this community due to a prebiotic treatment is very important to evaluate the final health effects of a prebiotic treatment. Finally, the effect of the prebiotic treatment with inulin or AX on the composition of the microbial community in both the gut lumen and at the gut wall can be expressed quantitatively in specific indices.
The Prebiotic Index (PI) describes the increase in the gut lumen in beneficial bacteria, relative to harmful bacteria due to the prebiotic treatment. PI=(Bif/Total)+(Lac/Total)−(Ecol/Total)−(Clos/Total) […]
For both indices, an increase in the quantitative value is evaluated as positive, with the degree of increase as a parameter for success of the prebiotic treatment (FIG. 4).

In assay [2] the test system is fecal microbial community. Description: SHIME in vitro gastrointestinal model: short chain fatty acid (A, P, B) ratios. Format: cell-based, human. Particulars: for A ratio (A/(A + P + B)), Ascending colon / A ratio, Descending colon / A ratio, Transverse colon / B ratio, Ascending colon / B ratio, Descending colon / B ratio, Transverse colon / P ratio, Ascending colon / P ratio, Descending colon / P ratio, Transverse colon: TWINSHIME
From the text: In Vitro Gastrointestinal Model—the Simulator of the Human Intestinal Microbial Ecosystem (SHIME)
The reactor setup was adapted from the SHIME, representing the gastrointestinal tract of the adult human, as described by Molly et al. (Molly, Woestyne et al. 1993). The SHIME consists of a succession of five reactors simulating the different parts of the human gastrointestinal tract. The first two reactors are of the fill-and-draw principle to simulate different steps in food uptake and digestion, with peristaltic pumps adding a defined amount of SHIME feed (140 mL 3×/day) and pancreatic and bile liquid (60 mL 3×/day), respectively to the stomach (V1) and duodenum (V2) compartment and emptying the respective reactors after specified intervals. The last three compartments are continuously stirred reactors with constant volume and pH control. Retention time and pH of the different vessels are chosen in order to resemble in vivo conditions in the different parts of the gastrointestinal tract. The overall residence time of the last three vessels, simulating the large intestine, is 76 h. Upon inoculation with fecal microbiota, these reactors simulate the ascending (V3), transverse (V4) and descending (V5) colon. Inoculum preparation, retention time, pH, temperature settings and reactor feed composition were previously described by Possemiers et al. (Possemiers, Verthe et al. 2004). In the comparison with of AX with inulin, two systems with identical environmental conditions (identical pH and temperature control) were run in parallel.
For the evaluation of the 2 prebiotics, the colon compartments of the SHIME reactors were first inoculated with an isolated fecal microbial community of a selected healthy volunteer. The SHIME reactor was operated under nominal conditions to stabilize the microbial community and let it adapt its metabolic activity and community composition to the conditions prevailing in the respective colon compartments. This stabilization period lasted for 3 weeks.
During the basal period, the SHIME reactor was operated under nominal conditions. Parameters such as short chain fatty acid (SCFA) production and ammonium production were determined 3 times/week. The results of these analyses served as the background values to be used to compare the measured parameters from the treatment period. The basal period lasted 2 weeks.
During the treatment period, the SHIME reactor was operated under nominal conditions, but with a modified diet containing a lower amount of starch in the medium compared to that of the basal period. In parallel, the ascending colon compartment of the first SHIME received inulin, whereas the second SHIME received AX. Both compounds were added in low doses of 1.5 g/d. SCFA and ammonium production were determined 3 times/week. This treatment period typically lasts for 3 weeks.
During the washout period, the SHIME reactor was operated under nominal conditions, with the initial diet. SCFA and ammonium production were determined 3 times/week. Analysis of these parameters allowed to assess whether possible changes from the treatment period normalize again to the levels of the basal period.
As acetate (A), propionate (P) and butyrate (B) are the main fatty acids produced by intestinal bacteria, the results are expressed as the ratio of each fatty acid to the sum of the 3 fatty acids.

The subject of assay [3] is bifidobacteria. Description: DGGE fingerprint of the bifidobacterial community in the cecum of human-microbiota associated rats. The note with it: 10% in diet, three weeks. Format: in vivo, rat. From the text: FIG. 3 DGGE (Denaturing Gradient Gel Electrophoresis) fingerprint profiles of the community of bifidobacteria in the cecum of three groups of human-microbiota associated rats (n=8/group) treated for 3 weeks with a control diet, inulin (10%) or AX (10%). The profiles were obtained after amplification of the bifidobacterial community using group-specific PCR primers.
Three groups of eight rats with human associated microbiotia were used in the experiment: • Control • Inulin • AX
During three weeks animals were treated with either 10% inulin, AX or a control diet (=5% sugar+5% cornstarch) in order to compare the prebiotic effects of both oligosaccharides. At the end of the three weeks, the animals were euthanized.
In addition to this, the composition of the bifidobacterial community in the cecum was monitored by Denaturing Gradient Gel Electrophoresis (DGGE) (FIG. 3). […] Bifidobacterium longum is one of most important inhabitants in the human body. This bacterium is very helpful because it maintains a normal digestive tract, inhibits the growth of harmful bacteria, and also boosts the immune system (Reinert, Birgit. “Friendly tenants in the human gut: The genome of B. longum”. 2002. Genome News Network).

The text below walks through data of patent publication US8465788B2, “Arabinoxylans for modulating the barrier function of the intestinal surface” (BioActor B.V., priority 2008, dated 2013).

inulin: in assay [1], the “Prebiotic Attachment Index (PAI) after stopping the administration” value was “returned back to baseline” and the “Prebiotic Index (PI) after stopping the administration” value was “returned back to baseline”. The “prebiotic effect (relative increase in P and B compared to A) in the colon compartments” value in assay [2] (SHIME, 1.5 g/d) was “only minor effects were observed in one colon compartment”. In assay [2] (treatment period, 1.5 g/d), the “A ratio (A/(A + P + B)), Ascending colon” value came to 0.45; the “A ratio, Descending colon” value amounted to 0.48; the “A ratio, Transverse colon” value is recorded as 0.43; the “B ratio, Ascending colon” value is given as 0.27. In addition, in assay [2] (treatment period, 1.5 g/d), the “B ratio, Descending colon” value was 0.24; the “B ratio, Transverse colon” value is recorded as 0.26; the “P ratio, Ascending colon” value was found to be 0.29; the “P ratio, Descending colon” value came out at 0.28. In assay [2] (treatment period, 1.5 g/d), the “P ratio, Transverse colon” value is listed as 0.31. In assay [2] (wash-out period), the “A ratio (A/(A + P + B)), Ascending colon” value was 0.45; the “A ratio, Descending colon” value came to 0.53; the “A ratio, Transverse colon” value was determined as 0.44; the “B ratio, Ascending colon” value was 0.20. Further, in assay [2] (wash-out period), the “B ratio, Descending colon” value was 0.19; the “B ratio, Transverse colon” value is recorded as 0.21; the “P ratio, Ascending colon” value worked out at 0.35; the “P ratio, Descending colon” value is reported as 0.28. For the same substance, the “P ratio, Transverse colon” value in assay [2] (wash-out period) is 0.35. Moreover, in assay [3], the “composition of the bifidobacterial community in the cecum (DGGE)” value is given as “little changes”.
